Measured values reported in PubChem BioAssay AID248 (DTP/NCI, 2004).
Toxic doses and inconclusive results are not listed. Rule as the data show it: active = T/C of 150% or more; inactive = T/C below 125%.

System: L1210 leukemia ip in BDF1 mice, survival T/C
Assay: NCI In Vivo Anticancer Drug Screen. Data for tumor model L1210 Leukemia (intraperitoneal) in B6D2F1 (BDF1) mice
Conditions: endpoint: mean survival time, higher = longer survival
In short: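 In this screen, tumor-bearing mice given compound are compared to those given vehicle, and their survival values are reported as a treated-to-control quotient.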

Measured: T/C

CC(C)CCC[C@@H](C)[C@H]1CC[C@H]2[C@@H]3CC=C4C[C@@H](OC(=O)Cc5ccc(N(CCCl)CCCl)cc5)CC[C@]4(C)[C@H]3CC[C@]12C
inactive: dose: 50.0 mg/kg/injection, schedule: Q01DX001 (sc), vehicle: steriod suspending solution 110 % of control | dose: 50.0 mg/kg/injection, schedule: Q01DX009 (oral), vehicle: saline 98 % of control | dose: 100.0 mg/kg/injection, schedule: Q01DX001 (sc), vehicle: steriod suspending solution 96 % of control | dose: 100.0 mg/kg/injection, schedule: Q01DX009 (oral), vehicle: other 121 % of control | dose: 100.0 mg/kg/injection, schedule: Q01DX009 (oral), vehicle: saline 98 % of control | dose: 100.0 mg/kg/injection, schedule: Q01DX009 (sc), vehicle: other 109 % of control | dose: 200.0 mg/kg/injection, schedule: Q01DX001 (sc), vehicle: steriod suspending solution 100 % of control | dose: 200.0 mg/kg/injection, schedule: Q01DX009 (oral), vehicle: saline 102 % of control | dose: 200.0 mg/kg/injection, schedule: Q01DX009 (sc), vehicle: other 111 % of control | dose: 250.0 mg/kg/injection, schedule: Q01DX015 (ip), vehicle: steriod suspending solution 95 % of control | dose: 400.0 mg/kg/injection, schedule: Q01DX001 (sc), vehicle: steriod suspending solution 115 % of control | dose: 400.0 mg/kg/injection, schedule: Q01DX009 (oral), vehicle: other 116 % of control | dose: 400.0 mg/kg/injection, schedule: Q01DX009 (oral), vehicle: saline 91 % of control | dose: 400.0 mg/kg/injection, schedule: Q01DX009 (sc), vehicle: other 106 % of control | dose: 400.0 mg/kg/injection, schedule: Q01DX015 (ip), vehicle: steriod suspending solution 111 % of control | dose: 800.0 mg/kg/injection, schedule: Q01DX009 (oral), vehicle: other 98 % of control | dose: 800.0 mg/kg/injection, schedule: Q01DX009 (oral), vehicle: saline 96 % of control

OC1C2(CCCCC2)CNC12C=CCCC2 (stereo not given)
inactive: dose: 75.0 mg/kg/injection, schedule: Q01DX001 (ip), vehicle: saline 98 % of control | dose: 150.0 mg/kg/injection, schedule: Q01DX001 (ip), vehicle: saline 97 % of control

CCCCCOC(CN)C(Cl)(Cl)Cl (stereo not given)
inactive: dose: 25.0 mg/kg/injection, schedule: Q01DX009 (ip), vehicle: saline 93 % of control | dose: 50.0 mg/kg/injection, schedule: Q01DX009 (ip), vehicle: saline 97 % of control | dose: 100.0 mg/kg/injection, schedule: Q04DX003 (ip), vehicle: saline 91 % of control

CCOC(=O)CCCS
inactive: dose: 75.0 mg/kg/injection, schedule: Q01DX001 (ip), vehicle: carboxymethylcellulose (CMC) 93 % of control | dose: 150.0 mg/kg/injection, schedule: Q01DX001 (ip), vehicle: carboxymethylcellulose (CMC) 93 % of control

O=C1CC(=Nc2ccc([N+](=O)[O-])cc2)NN1c1c(Cl)cc(Cl)cc1Cl
inactive: dose: 100.0 mg/kg/injection, schedule: Q01DX009 (ip), vehicle: saline with Tween-80 97 % of control | dose: 200.0 mg/kg/injection, schedule: Q01DX009 (ip), vehicle: saline with Tween-80 101 % of control | dose: 400.0 mg/kg/injection, schedule: Q01DX009 (ip), vehicle: saline with Tween-80 90 % of control

CN(C(=O)Nc1ccc(Cl)cc1[N+](=O)[O-])C1CCCCC1
inactive: dose: 100.0 mg/kg/injection, schedule: Q01DX009 (ip), vehicle: Klucel (hydroxypropylcellulose) (HPC) 92 % of control | dose: 200.0 mg/kg/injection, schedule: Q01DX009 (ip), vehicle: Klucel (hydroxypropylcellulose) (HPC) 94 % of control | dose: 400.0 mg/kg/injection, schedule: Q01DX009 (ip), vehicle: Klucel (hydroxypropylcellulose) (HPC) 97 % of control
